Here are results for five molecules from PMC7962642, “A Synergic Potential of Antimicrobial Peptides against Pseudomonas syringae pv. actinidiae” (Molecules, 2021).

pIC50: −log10 of the molar value. ≈ marks a conversion by molar mass, not a printed value. Like-named read-outs stand apart in the source and are kept apart here. No end group written: not given here.

The subject of series [1] is Psa strains. Nature of the series: Minimal bactericidal concentration (MBC), subculture on peptide-free King's B agar. It counts as cell-based, Pseudomonas syringae pv. actinidiae. As to the method:
(§1) All strains were obtained from stocks preserved at –80 °C and cultured in King’s B medium (protease peptone, 20.0 g; anhydrous K2HPO4, 1.5 g; glycerol, 10.0 mL; MgSO4·7H2O, 1.5 g; agar, […]; distilled water up to 1.0 L). Individual colonies of each strain were selected and re-streaked two times to ensure purity. Psa strains were isolated in different infected kiwifruit orchards between 2013 and 2017. CFBP7286 was used as Psa biovar 3 reference strain. For the antibiogram assays, pure colonies of all bacterial strains were grown overnight in Muller-Hinton Broth (MHB; Oxoid), at 28 °C and 240 rpm. Bacterial growth was monitored and adjusted to 0.135 optical density at 600 nm (OD600) in a spectrophotometer (Genesys 10uv Scanning, Thermo Scientific). […] For flow cytometry experiments, bacteria were cultured in King’s B broth medium for 20 h, at 25 °C in a shaking incubator at 200 rpm.
(§2) The MIC and MBC were determined for peptides discriminated by the antibiograms as the most efficient, i.e., RW-BP100, CA-M, 3.1, and BP100. […] In this assay, additional concentrations to those used in the antibiogram analysis were included in order to obtain more accurate results. Sterile 96-well microplates were filled with 150 µL of peptide and bacterial solution in a 1:1 ratio, leading to final concentrations of peptides equal to 0.25, 0.75, 1.6, 3.4, 6.2, 10, 25, 50, and 100 µM. As negative control a bacterial-free solution and sterile distilled water was used, and positive control with chlortetracycline to a final concentration of 25 µM was used. Microplates were incubated at 25 °C and 130 rpm and OD600 was measured hourly for 24 h, with 30 s vigorous shaking before each reading. The experiment was repeated three distinct times with different fresh bacterial colonies.
(§3) Data from bacterial growth curves were analyzed to determine IC50 values with two-way ANOVA and Tukey tests (p < 0.05). MIC values were set as the peptide lowest concentrations that reduced bacterial growth.

For series [2], the system named is Psa strains. Nature of the series: Minimal inhibitory concentration (MIC), microplate growth in MHB. It counts as cell-based, Pseudomonas syringae pv. actinidiae. As to the method:
as §1, §2, §3

In series [3] the test system is Psa strains. The series can be described thus: IC50 from bacterial growth curves. It counts as cell-based, Pseudomonas syringae pv. actinidiae. Conditions: based on bacterial growth curves, read-out: half-maximal inhibitory concentration (IC50). The method, then:
as §2, §3

Series [4] concerns Nicotiana tabacum cv. 'Havana' leaves. The series can be described thus: AMP toxicity on tobacco leaves by syringe infiltration. It counts as in vivo. The note with it: AMP alone in PBS at assay concentration. The method, then:
To assess the HR, the Psa reference CFBP7286 strain was used. CFBP7286 cells were more exposed to the AMPs (doses and periods of exposure) than those used on the flow cytometry and the CFUs analyzes; from individual effects of AMPs on the reference CFBP7286 strain, the HR was assessed. Tobacco plants (Nicotiana tabacum cv. ‘Havana’) were sown in plant pots of 1 L in peat substrate (Siro, Mira, Portugal). Plants were grown for 8 weeks in a growth chamber with a controlled temperature at 25 °C ± 2 and relative humidity at 50% ± 5. Psa infiltration on tobacco plants for HR was performed according to Stefani and Loreti using a syringe tip to inoculate 1 mL of bacterial suspension after 1 h of AMPs treatments in the abaxial side of the leaves. PBS was used as a negative control and Psa CFBP7286 at the same concentration and diluted in PBS for 1 h as the treatment was infiltrated as a positive control for HR. The AMPs at the assay concentration were prepared in PBS and infiltrated, also as a negative control of the treatment. The development of HR was monitored within 24 and 48 h post infiltration (hpi). Three tobacco plants, and three leaves of each plant, were used in three independent experiments.

Series [5] has as its system Psa CFBP7286. It counts as cell-based. Conditions: 1 h treatment; alone or combined with 3.1 at equal concentrations. As to the method:
The number of viable bacteria cells of CFBP7286 strains was determined by CFU counting, using bacteria inocula exposed to the same AMPs (doses and periods of exposure) than those used on the flow cytometry assays. In the individual evaluation of BP100, CA-M, and 3.1 AMPs as well as the mixtures BP100:3.1 and CA-M:3.1, CFUs were determined by the drop method in the plate. All treated samples and controls were subjected to 10 serial ^1/10 dilutions in sterile PBS and 10 μL of each dilution was cultured on King’s B agar (1.5%) plates, with further incubation at 25 °C for 24 h. After the incubation time, plates were recorded in a GelDoc (BioRad) and colonies were counted for the last dilution with bacterial growth. This experiment was performed in three biological and temporal replicates.

The test system of series [6] is tobacco leaf. The note with it: cited from earlier work. The source says:
The assays on tobacco plants are often used to analyze the toxicity effects of AMPs [[29],[30],[49],[5 ...

Series [7] deals with Pseudomonas syringae pv. actinidiae (Psa) strains. Nature of the series: Antibiogram assay (peptide drop on inoculated MH agar). The class given is cell-based. Further details: key: “ns” means the strain was not susceptible to the peptide in the tested concentration range. Conditions: 1 µL drop on MH agar, 25 °C, 24 h, tested 0.4-200 µM. The method, then:
All strains were obtained from stocks preserved at –80 °C and cultured in King’s B medium (protease peptone, 20.0 g; anhydrous K2HPO4, 1.5 g; glycerol, 10.0 mL; MgSO4·7H2O, 1.5 g; agar, […]; distilled water up to 1.0 L). Individual colonies of each strain were selected and re-streaked two times to ensure purity. Psa strains were isolated in different infected kiwifruit orchards between 2013 and 2017. CFBP7286 was used as Psa biovar 3 reference strain. For the antibiogram assays, pure colonies of all bacterial strains were grown overnight in Muller-Hinton Broth (MHB; Oxoid), at 28 °C and 240 rpm. Bacterial growth was monitored and adjusted to 0.135 optical density at 600 nm (OD600) in a spectrophotometer (Genesys 10uv Scanning, Thermo Scientific). […]
All six AMPs, BP100, RW-BP100, CA-M, D4E1, 3.1, and Dhvar-5 (Table 3), were evaluated by antibiogram assays to determine the most promising peptides against the selected bacterial strains. […]
For the pre-incubation, bacterial cultures were inoculated in Muller-Hinton (MH; Oxoid) agar (1.5%) medium by spreading 1 mL of each culture, removing the excess after 1 min and allowing drying for 15 min. […] After the incubation period, plate images were acquired on Gel Doc (BioRad, Hercules, CA, USA) and AMP activity was determined by no growth on drop site for each concentration. […]

Where [8] appears, read: reference strain CFBP7286, subculture on peptide-free King's B agar, 25 °C, 24 h.
Where [9] appears, read: strain AL114b, subculture on peptide-free King's B agar, 25 °C, 24 h.
[10] abbreviates: strain AL115, subculture on peptide-free King's B agar, 25 °C, 24 h.
[11] abbreviates: strain Fv62, subculture on peptide-free King's B agar, 25 °C, 24 h.
The mark [12] stands for this setting: strain P85, subculture on peptide-free King's B agar, 25 °C, 24 h.
[13] abbreviates: strain VN29, subculture on peptide-free King's B agar, 25 °C, 24 h.
[14] abbreviates: strain VV10, subculture on peptide-free King's B agar, 25 °C, 24 h.
The mark [15] stands for this setting: strain VV112, subculture on peptide-free King's B agar, 25 °C, 24 h.
Where [16] appears, read: summary over the eight Psa strains (abstract).
[17] abbreviates: reference strain CFBP7286, MHB, 96-well, 25 °C, 130 rpm, OD600 hourly for 24 h, repeated three times.
Where [18] appears, read: strain AL114b, MHB, 96-well, 25 °C, 130 rpm, OD600 hourly for 24 h, repeated three times.
Where [19] appears, read: strain AL115, MHB, 96-well, 25 °C, 130 rpm, OD600 hourly for 24 h, repeated three times.
[20] abbreviates: strain Fv62, MHB, 96-well, 25 °C, 130 rpm, OD600 hourly for 24 h, repeated three times.
Setting [21] is: strain P85, MHB, 96-well, 25 °C, 130 rpm, OD600 hourly for 24 h, repeated three times.
Where [22] appears, read: strain VN29, MHB, 96-well, 25 °C, 130 rpm, OD600 hourly for 24 h, repeated three times.
The mark [23] stands for this setting: strain VV10, MHB, 96-well, 25 °C, 130 rpm, OD600 hourly for 24 h, repeated three times.
Setting [24] is: strain VV112, MHB, 96-well, 25 °C, 130 rpm, OD600 hourly for 24 h, repeated three times.
The mark [25] stands for this setting: all strains (for CA-M except P85 and VN29), repeated three times.

What is called MBC is the lowest tested concentration that kills the bacteria rather than only halting them. For orientation: MIC means the smallest concentration in the dilution series that meets the test's criterion for growth inhibition. In the case of `CC[C@H](C)[C@H](NC(=O)[C@H](CCCCN)NC(=O)[C@H](CCCCN)NC(=O)[C@H](Cc1ccccc1)NC(=O)[C@H](CC(C)C)NC(=O)[C@H](CCCCN)NC(=O)[C@@H](N)CCCCN)C(=O)N[C@@H](CC(C)C)C(=O)N[C@@H](CCCCN)C(=O)N[C@@H](Cc1ccc(O)cc1)C(=O)N[C@@H](CC(C)C)C(N)=O` [BP100, reference compound], the MBC in series [1] (setting [8]) is 3.4 µM (≈ 4.83 µg/mL); in series [1] (setting [9]), 3.4 µM (≈ 4.83 µg/mL); in series [1] (setting [10]), 3.4 µM (≈ 4.83 µg/mL); in series [1] (setting [11]), 10 µM (≈ 14.2 µg/mL); in series [1] (setting [12]) it was 6.2 µM (≈ 8.81 µg/mL); in series [1] (setting [13]) it was 6.2 µM (≈ 8.81 µg/mL). For the same molecule, the MBC in series [1] (setting [14]) is 6.2 µM (≈ 8.81 µg/mL); in series [1] (setting [15]), 10 µM (≈ 14.2 µg/mL); in series [1] (setting [16]) it was 3.4 to 10 µM. For the same molecule, the MIC in series [2] (setting [17]), in series [2] (setting [18]), in series [2] (setting [19]), in series [2] (setting [20]), in series [2] (setting [21]) and in series [2] (setting [22]) was 3.4 µM (≈ 4.83 µg/mL) in each case. Further, the MIC in series [2] (setting [23]) and in series [2] (setting [24]) was 3.4 µM (≈ 4.83 µg/mL) each time. Moreover, in series [3] (setting [25]), the pIC50 is around 5.70. Besides, in series [4], the “AMP toxicity on tobacco plants” value is reported as “absence/low toxicity”. Besides, the “lethal concentration of BP100 by CFUs” value in series [5] turned out to be 2 µM. The tobacco leaf lesions in series [6] (at 50 µM) is listed as 4 mm; in series [6] (at 250 µM) it was 12.5 mm.

On to KKLLKWLLKLL-NH2 [3.1], for which the MBC in series [1] (setting [8]) came out at 25 µM; in series [1] (setting [9]), 25 µM; in series [1] (setting [10]), 10 µM; in series [1] (setting [11]), 25 µM; in series [1] (setting [12]), 25 µM; in series [1] (setting [13]), 25 µM. Also, the MBC in series [1] (setting [14]) and in series [1] (setting [15]) was 25 µM in each case. Besides, the MIC in series [2] (setting [17]) was found to be 10 µM; in series [2] (setting [18]) it was 25 µM; in series [2] (setting [19]), 10 µM; in series [2] (setting [20]), 10 µM; in series [2] (setting [21]), 25 µM; in series [2] (setting [22]), 10 µM. For the same molecule, the MIC in series [2] (setting [23]) and in series [2] (setting [24]) was 10 µM throughout. Further, the “AMP toxicity on tobacco plants” value in series [4] is on record as “absence/low toxicity”.

Turning to KWKLFKKIGAVLKVL-NH2 [CA-M], the MBC came out at 6.2 µM in series [1] (setting [8]); 10 µM in series [1] (setting [9]); 6.2 µM in series [1] (setting [10]); 10 µM in series [1] (setting [11]); 6.2 µM in series [1] (setting [12]); 6.2 µM in series [1] (setting [13]). Further, the minimum bactericidal concentration (MBC) in series [1] (setting [14]) is 6.2 µM; in series [1] (setting [15]), 6.2 µM; in series [1] (setting [16]), 3.4 to 10 µM. The MIC in series [2] (setting [17]) is 3.4 µM; in series [2] (setting [18]), 3.4 µM; in series [2] (setting [19]), 3.4 µM; in series [2] (setting [20]), 3.4 µM; in series [2] (setting [21]), 6.2 µM; in series [2] (setting [22]) it was 6.2 µM. In addition, the MIC was 3.4 µM in series [2] (setting [23]), 3.4 µM in series [2] (setting [24]) and 3.4 to 6.2 µM in series [2] (setting [16]). The results for the pIC50 in series [3] (setting [25]), in series [3] (strain P85) and in series [3] (strain VN29) were around 5.70, around 5.40 and around 5.40, respectively. The “AMP toxicity on tobacco plants” value in series [4] is recorded as “absence/low toxicity”.

As to LLLFLLKKRKKRKY-NH2 [Dhvar-5], the antibiogram inhibitory concentration result in series [7] (strain VC104b) and in series [7] (strain VN29) was “ns” in each case.

In the case of RRLFRRILRWL-NH2 [RW-BP100], the MBC in series [1] (setting [8]), in series [1] (setting [9]), in series [1] (setting [10]), in series [1] (setting [11]), in series [1] (setting [12]) and in series [1] (setting [13]) was 6.2 µM each time. The MBC in series [1] (setting [14]) and in series [1] (setting [15]) was 6.2 µM each time. For the same molecule, the MIC was 3.4 µM in series [2] (setting [17]); 6.2 µM in series [2] (setting [18]); 6.2 µM in series [2] (setting [19]); 6.2 µM in series [2] (setting [20]); 6.2 µM in series [2] (setting [21]); 6.2 µM in series [2] (setting [22]). Further, the MIC in series [2] (setting [23]) and in series [2] (setting [24]) was 6.2 µM each time.
